Tests used:
[1] = plasma half-life of elimination, two-way crossover oral/intravenous study in dogs; format: in vivo, mongrel dogs; conditions: 10 mg/kg, average of oral and intravenous testing, dog plasma, HPLC; read-out: mean apparent terminal half-life of elimination (converted)
Protocol: Tests were conducted in order to compare the apparent half-life of elimination in the animal bloodstream of compounds of the present invention with that of the parent prior art compounds of which they are the metabolites as follows:
A two-way crossover study was conducted on male and female adult mongrel dogs. Each dog, after overnight fasting, received a single oral or intravenous dose of 10 mg/kg of test drug in 75% PEG in water and in such concentration that each dog received 1 ml of solution/kg of body weight. Oral doses were administered by using a glass syringe attached to a Levin® tube (size 18 French) which served as the stomach tube. […] Plasma levels of the test drug in the samples were determined by the HPLC method described by Osman, M. A.; Pinchbeck, F. M.; Cheng, L. K.; and Wright, G. J. described in the Journal of Chromatography, 336 (1981). […] The test drug being measured and the internal standard were then extracted from the plasma into a mixture of hexane, methylene chloride and butanol. […] The final solution was chromatographed on a Waters® column C18 reverse-phase system, the samples being analyzed in sequential order starting with the 0-hr sample (control) and proceeding to the 24 hr sample for the same animal. Duplicate assays were carried out for each sample and the mean value was recorded. […]

[2] = anticonvulsant activity against Metrazole (pentylenetetrazol) s.c. in mice, method of Swinyard; format: in vivo; conditions: for Number Protected / Number Tested: 1/2 hr before 80 mg/kg s.c. Metrazole; for ED50: Mus musculus, ip, 80 mg/kg s.c. Metrazole, probit analysis, read-out: ED50 and (Confidence Limits)
Source text: The procedure for testing the compounds for their anticonvulsant activity and comparison with prior art compounds is based on evaluation techniques published by Swinyard, E. A. in EPILEPSIA 10: 107-19 (1969) and in J. PHARMAC. EXPTL. THERAP. 106: 319-30 (1952) as explained in greater detail below.
A comparison was made of anti-convulsant activity of the compound of Example 1 and the prior art methyl analog (U.S. Pat. No. 4,226,861, Example 4) using metrazole as the convulsant by the method of Swinyard (See above citation).
Ninety-six adult female mice weighing 24-32 g were randomly assigned to dosage groups according to the method of Steel, R. G. D. and Torrie, J. H. (1960) in "Principles and Procedures of Statistics," McGraw-Hill Book Company, Inc., pp 99-100, pp 428-31. Each mouse was identified with a color code on its tail. The test compounds were administered as suspensions in 10 ml/kg mouse body weight of 0.5% aqueous methyl cellulose within 15 minutes of preparation of the suspension. Metrazole (pentylenetetrazol) was prepared as a solution in physiological saline. The mice were not fasted prior to the test. Eight mice were tested at each dosage level.
Each mouse received one dose of the test drug in the 0.5% aqueous methylcellulose or the control article (0.5% aqueous methylcellulose alone) intraperitoneally. Metrazole (80 mg/kg S.C.) was then given in a loose fold of skin on the back of the neck; i.e., 1/2 hr after the test compound or control article was given. Injections were given with a 1-ml glass tuberculin syringe with appropriate size hypodermic needle (27 gauge for solutions; 23 gauge for suspensions). All injections were given in a volume of 10 ml/kg mouse body weight. […] Anticonvulsant data were tabulated as the percent protection, i.e., [formula] The ED50 and (95% confidence limits) and potency ratio were ascertained by the computer-based probit analysis ascribed to Finney, D. J. (1964) Statistical Method in Biological Assay., 2nd Ed., New York. Hefner Publishing Co. Results are in Table A. Statistical analysis of the data indicated no significant difference in anti-convulsant potency between the two compounds.
(a) All mice were first injected with 10 ml/kg of 0.5% aqueous
methylcellulose intraperitoneally in which test compound was suspended if
(b) 80 mg/kg Metrazole in 10 ml saline of mouse body weight was
administered to all mice subcutaneously in a loose fold of skin on the
back of the neck onehalf hr. after administration of test compound.

| half-life [1] [h] | Structure (SMILES) | Number Protected / Number Tested ([2]; 45 mg/kg i.p.) | Number Protected / Number Tested ([2]; 67 mg/kg i.p.) | Number Protected / Number Tested ([2]; 100 mg/kg i.p.) | Number Protected / Number Tested ([2]; 150 mg/kg i.p.) | Number Protected / Number Tested ([2]; 225 mg/kg i.p.) | ED50 [2] [mg/kg] | Potency and 95% Confidence Limits ([2]; potency ratio, prior art compound 1.00, i.p.) |
| --- | --- | --- | --- | --- | --- | --- | --- | --- |
| 2.4 ± 0.4 | NC(=O)N1CC(Oc2cccc(C(F)(F)F)c2)C1 [Example 1, 3-[3-(Trifluoromethyl)phenoxy]-1-azetidinecarboxamide] | 1/8 | 2/8 | 4/8 | 5/8 | 8/8 | 99.2 | 0.92 |
| 1.3 ± 0.4 | CNC(=O)N1CC(Oc2cccc(C(F)(F)F)c2)C1 [Example 4 of U.S. Pat. No. 4,226,861, N-methyl-3-(3-trifluoromethyl) phenoxy-1-azetidinecarboxamide, reference compound] | 1/8 | 2/8 | 3/8 | 8/8 |  | 90.9 |  |

Reference: patent US4571393A, “3-Phenoxy-1-azetidinecarboxamides” (A. H. Robins Company, Incorporated, priority 1984, dated 1986)
